Paper PMC6207370 (Xenobiotica; the fate of foreign compounds in biological …, 2017)
Like-named read-outs stand apart in the source and are kept apart here. Marks after values point to notes of the source that are not given here.

Legend:
[1] = male, Sprague-Dawley, rat, 1 μM, pH 7.4
[2] = in vitro; settings: both, human
[3] = male, CD-1, mouse, 1 μM, pH 7.4
[4] = Allometric scaling; set-up: species or system human; settings: SSS from minipig
[5] = in vitro; settings: male, Hartley, guinea pig
[6] = male, cynomolgus monkey, pH 7.4
[7] = assay type: in vitro ADME
[8] = in vitro; settings: male, cynomolgus monkey
[9] = in vitro; settings: male, CD-1, mouse, s9, pH 7.4, CLint +NADPH
[10] = in vitro; settings: male, Gottingen, minipig, s9, pH 7.4, CLint +NADPH
[11] = in vitro; settings: male, Sprague-Dawley, rat, s9, pH 7.4, CLint +NADPH
[12] = i.v., ref Dolan ME, Roy SK, Fasanmade AA, et al. (1998); cited from earlier work
[13] = male, Gottingen, minipig, 1 μM, pH 7.4
[14] = male, rhesus monkey, pH 7.4
[15] = both, human, pH 7.4
[16] = male, Hartley, guinea pig, pH 7.4
[17] = in vitro; settings: male, rhesus monkey

In the case of `Nc1nc(OCc2ccccc2)c2[nH]cnc2n1` [O^6-benzylguanine], the “CLHEP (hepatic clearance)” value [1] is reported as 7.40 ± 1.61 mL/min/kg, the “E (estimated hepatic extraction ratio)” value [1] is reported as 0.11 and the CLint scaled at 1 μM ([2]; s9, pH 7.4, CLint +NADPH) is reported as 17.8 ± 3.05 mL/min/kg. The CLint scaled at 1 μM ([2]; s9, pH 7.4, CLint +NADPH +Hyd) was 5.37 ± 1.16 mL/min/kg, the CLint scaled at 1 μM ([2]; s9, pH 7.4, CLint −NADPH) was 14.8 ± 1.98 mL/min/kg and the “CLHEP (hepatic clearance)” value [3] was 16.6 ± 4.51 mL/min/kg. For the same molecule, the “E (estimated hepatic extraction ratio)” value [3] was 0.18, the “fold-error of human S9 CLint predicted by SSS” value [4] was “outside of 3-fold-error” and the CLint scaled at 1 μM ([5]; s9, pH 7.4, CLint +NADPH) was 58.7 ± 4.65 mL/min/kg. For the same molecule, the CLint scaled at 1 μM ([5]; s9, pH 7.4, CLint +NADPH +Hyd) was 15 ± 2.14 mL/min/kg, the CLint scaled at 1 μM ([5]; s9, pH 7.4, CLint −NADPH) was 48.7 ± 5.15 mL/min/kg and the “CLHEP (hepatic clearance)” value ([6]; 1 μM) was 21.4 ± 2.28 mL/min/kg. For the same molecule, the “E (estimated hepatic extraction ratio)” value ([6]; 1 μM) was 0.49, the “Fm,AO Method A (fraction metabolized by AO)” value ([6]; s9, 1 μM) was 1 and the “Fm,AO Method B (fraction metabolized by AO)” value ([6]; s9, 1 μM) was 0.94. The “Fm,AO, across species” value ([7]; all species except rat, mouse, and minipig) was at least 0.70, the “E (estimated hepatic extraction ratio), across species” value ([7]; human, cynomolgus, and guinea pig hepatic S9) was “approximately 0.5” and the “E (estimated hepatic extraction ratio), across species” value ([7]; rat, mouse, minipig hepatic S9) was “approximately 0.1”. It also gave a CLint scaled at 1 μM ([8]; s9, pH 7.4, CLint +NADPH) of 35.6 ± 5.1 mL/min/kg, a CLint scaled at 1 μM ([8]; s9, pH 7.4, CLint −NADPH) of 33.5 ± 3.84 mL/min/kg and a CLint scaled at 1 μM [9] of 15.5 ± 2.48 mL/min/kg. The CLint scaled at 1 μM [10] was 4.68 ± 2.2 mL/min/kg, the CLint scaled at 1 μM [11] was 6.59 ± 0.664 mL/min/kg and the “Human Plasma Clearance” value [12] was 14.5^# mL/min/kg. The “CLHEP (hepatic clearance)” value [13] was 3.79 ± 1.04 mL/min/kg, the “E (estimated hepatic extraction ratio)” value [13] was 0.14 and the “CLHEP (hepatic clearance)” value ([14]; 1 μM) was 15.0 ± 1.75 mL/min/kg. The “E (estimated hepatic extraction ratio)” value ([14]; 1 μM) was 0.34, the “Fm,AO Method A (fraction metabolized by AO)” value ([14]; s9, 1 μM) was 1 and the “Fm,AO Method B (fraction metabolized by AO)” value ([14]; s9, 1 μM) was 1^#. The “CLHEP (hepatic clearance)” value ([15]; 1 μM) was 9.62 ± 0.593 mL/min/kg, the “E (estimated hepatic extraction ratio)” value ([15]; 1 μM) was 0.46 and the “Fm,AO Method A (fraction metabolized by AO)” value ([15]; s9, 1 μM) was 0.70. The “Fm,AO Method B (fraction metabolized by AO)” value ([15]; s9, 1 μM) was 0.83, the “CLHEP (hepatic clearance)” value ([16]; 1 μM) was 30.3 ± 1.11 mL/min/kg and the “E (estimated hepatic extraction ratio)” value ([16]; 1 μM) was 0.50. The “Fm,AO Method A (fraction metabolized by AO)” value ([16]; s9, 1 μM) was 0.74, the “Fm,AO Method B (fraction metabolized by AO)” value ([16]; s9, 1 μM) was 0.83 and the CLint scaled at 1 μM ([17]; s9, pH 7.4, CLint +NADPH) was 19.5 ± 2.05 mL/min/kg. For the same molecule, the CLint scaled at 1 μM ([17]; s9, pH 7.4, CLint −NADPH) was 21.3 ± 1.52 mL/min/kg.
